Values quoted from earlier work as cited in patent US20250127175A1, “ANTIMICROBIAL POLYMER COMPOSITIONS, ANTIMICROBIAL POLYMER ARTICLES, AND METHODS OF MAKING THE SAME” (CORNING INCORPORATED, priority 2021, published 2025).

Conditions: water-soluble defined as minimum of 20 grams in 100 milliliters of water at 25° C.

For `CCCCn1cc[n+](C)c1.F[P-](F)(F)(F)(F)F` [1-butyl-3-methylimidazolium hexafluorophosphate], the “water solubility (in words)” value is listed as “water insoluble”.
